Results on 10 compounds are retold here after paper PMC6009905, “Kushenol A and 8-prenylkaempferol, tyrosinase inhibitors, derived from Sophora flavescens” (Journal of Enzyme Inhibition and Medicinal Chemistry, 2018).

The structures appear in SMILES notation. Where “and” joins values, the source holds several entries; their conditions need not be identical. Equal values may be shown once.

One experiment can be described thus: ABTS radical assay. The note with it: triplicate; for IC50: log-dose inhibition curve, read-out: Scavenging activity of compounds on ABTS radical, SC50. The method, then: The ABTS radical cation assay was modified the method of Re et al.[15] Briefly, the mixture of 7.4 mM ABTS solution with 2.6 mM potassium persulfate incubated at room temperature in dark for 24 h. […] Fifty microliter of the inhibitor was reacted with 950 μL of the ABTS solution. Absorbance value was monitored during 10 min at 732 nm using a spectrophotometer. The free radical value (SC50) was calculated by the log-dose inhibition curve. Scavenging activity (%)=[1–(extract absorbance/control absorbance)]×100.

Experiment [1] deals with T1, tyrosinase (Agaricus bisporus, UniProt C7FF04). Kind of experiment: Tyrosinase assay (conversion of L-tyrosine to L-DOPA, UV-Vis 475 nm). The class given is biochemical. On the set-up: purchased Sigma-Aldrich T3824. The note with it: L-tyrosine substrate, triplicate; for inhibition at 100 µM: 100 μM inhibitor, read-out: Inhibitory activity of compounds on tyrosinase, 100 μM (%); for IC50: read-out: Inhibitory activity of compounds on tyrosinase, IC50. The method, then:
(§1) Enzyme assay was performed according to the modified methods in the previous papers. For the calculation of inhibitory activity, 130 μL of tyrosinase (about 46 units/mL) solvated in 0.1 mM phosphate buffer (pH: 6.8) and 20 μL of 1–0.0078 mM concentrations of the inhibitors were mixed in a 96-well plate, and then 50 μL of 2 mM L-tyrosine in buffer was added in mixture. To test the enzyme kinetic study, 130 μL of tyrosinase and 20 μL of inhibitor were also mixed, and then 50 μL of 0.62–10 mM L-tyrosine was added in a 96-well plate.
Target sequence in this assay (C7FF04 1-392 limits assumed): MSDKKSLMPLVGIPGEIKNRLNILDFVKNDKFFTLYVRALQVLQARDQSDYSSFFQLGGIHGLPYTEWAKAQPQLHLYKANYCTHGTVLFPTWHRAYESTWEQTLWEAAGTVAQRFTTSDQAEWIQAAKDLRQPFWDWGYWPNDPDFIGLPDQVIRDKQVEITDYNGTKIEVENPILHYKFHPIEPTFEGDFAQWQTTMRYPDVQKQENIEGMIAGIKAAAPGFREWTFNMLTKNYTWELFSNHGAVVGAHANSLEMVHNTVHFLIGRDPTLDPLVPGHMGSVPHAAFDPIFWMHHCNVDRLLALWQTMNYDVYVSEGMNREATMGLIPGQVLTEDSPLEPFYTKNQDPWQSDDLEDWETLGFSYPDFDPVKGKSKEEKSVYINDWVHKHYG

For experiment [2], the target named is T1, tyrosinase. Briefly: Tyrosinase enzyme kinetics (Lineweaver-Burk plots, secondary re-plot). Format: biochemical. As to conditions: 0.62-10 mM L-tyrosine. As for the experimental part:
as §1, with “plate. The mixture was recorded at UV-Vis 475 nm during 20 min. The inhibitory ratio was calculated according to the following equation: Inhibitory activity rate (%)=100–[(S20–S0/C20–C0]×100 where C20 and S20 are the intensity of control and inhibitor after 20 min, C0 and S0 are the intensity of control and inhibitor at 0 min.” for “plate.”
Target sequence in this assay (C7FF04 2-392): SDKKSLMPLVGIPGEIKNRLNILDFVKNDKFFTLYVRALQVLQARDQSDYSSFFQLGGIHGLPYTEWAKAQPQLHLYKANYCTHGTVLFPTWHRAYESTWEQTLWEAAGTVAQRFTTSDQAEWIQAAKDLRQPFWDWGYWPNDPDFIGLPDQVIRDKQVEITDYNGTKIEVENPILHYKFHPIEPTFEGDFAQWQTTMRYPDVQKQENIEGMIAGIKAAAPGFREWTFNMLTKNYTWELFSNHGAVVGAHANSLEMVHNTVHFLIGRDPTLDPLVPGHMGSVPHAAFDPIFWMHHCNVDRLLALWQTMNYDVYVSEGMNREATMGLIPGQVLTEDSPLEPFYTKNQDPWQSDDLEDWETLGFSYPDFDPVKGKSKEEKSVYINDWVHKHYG
This study confirmed the inhibitory mechanism of compounds 1–4 towards tyrosinase using enzyme kinetics. Enzyme kinetics were performed based on academic methods that examine a variety of substrate concentrations. The results were represented by Lineweaver–Burk plots, which confirmed the inhibition to […]. […]

The test system of another experiment is HepG2 cells. Kind of experiment: Measurement of intracellular ROS in H2O2-treated HepG2 cells. Format: cell-based, Human. As to conditions: 10 μM inhibitor 1 h, then 2 mM H2O2 30 min; negative control 100.0%, positive control 701.5%. The method, then: Human hepatoma HepG2 cells were cultured in DMEM supplemented with 10% FBS, 100 units/mL of penicillin and 100 μg/mL of streptomycin. Cells were maintained incubation at 37 °C under a 5% CO2[16].
The concentration of intracellular ROS was measured using a carboxy-H2DCFDA probe, as previously described. HepG2 cells were seeded into six-well plates at a density of 1 × 10^5 cells/mL and incubated for 24 h. After treatment with 10 μM concentrations of inhibitors 1–5 for 1 h, H2O2 (2 mM) was added to plates for 30 min. Cells were then incubated with 10 μM carboxy-H2DCFDA for 20 min, then cells were washed and harvested. Cells were immediately examined using a flow cytometer (Cytomics FC500; Beckman, Miami, FL).
To examine their antioxidant activity in vitro, pure compounds 1–5 were added to HepG2 cells, followed by addition of 2 mM H2O2. As shown in Figure 5(A), the respective negative (H2O2: –; I: –) and positive (H2O2: +; I: –) controls generated reactive oxygen species (ROS) of 100.0% ± 9.1% and 701.5% ± 46.9%. […] The viability of HepG2 cells following treatment with all compounds 1–5 at 10 μM ranged from 100.1% ± 6.1% to 103.8% ± 5.1% (Figure S6). Compound 2 caused an […].

The target of experiment [3] is tyrosinase. More on the design: method as in PMID 12951485, PMID 18175961. As to conditions: read-out: IC50 on tyrosinase (previous report); cited from earlier work.

For the compound `O=C1O[C@H]([C@@H](O)CO)C(O)=C1O` [Ascorbic acid, reference compound], in the experiment “ABTS radical assay”, the “Scavenging activity of compounds on ABTS radical, 25 μM (%)” value (“Scavenging activity of compounds … (%)” for short) is 44.9 ± 0.9% and the IC50 was 27.8 ± 0.5 µM.

With `C=C(C)[C@H](CC=C(C)C)Cc1c(O)cc(O)c2c1O[C@H](c1ccccc1O)CC2=O` [Compound 1, kushenol A], at tyrosinase [1], the inhibition at 100 µM was 101 ± 3.3%; the IC50 is < 10 µM and 1.1 µM. For the same compound, the Binding mode result at tyrosinase [2] is recorded as “non-competitive inhibitors”. Also, in “ABTS radical assay”, the “Scavenging activity of compounds … (%)” value worked out at 93.7 ± 0.3% and the IC50 turned out to be 9.7 ± 0.1 µM.

For `CC(C)=CCc1c(O)cc(O)c2c(=O)c(O)c(-c3ccc(O)cc3)oc12` [Compound 2, 8-prenylkaempferol], in the experiment on HepG2 cells, the ROS generation is 435.3% ± 43.0%. Moreover, at tyrosinase [1], the inhibition at 100 µM was found to be 90.4 ± 3%; the IC50 is < 10 µM and 2.4 µM. Further, the Binding mode entry at tyrosinase [2] is reported as “competitive inhibitor”. In “ABTS radical assay”, the “Scavenging activity of compounds … (%)” value worked out at 93.2 ± 0.2% and the IC50 was determined as 7.9 ± 0.3 µM.

Take `C=C(C)C(CC=C(C)C)Cc1c(O)cc(O)c2c(=O)c(O)c(-c3ccc(O)cc3O)oc12` (stereo not shown) [Compound 3, kushenol C]: the ROS generation with HepG2 cells was 391.7% ± 56.3%. Further, at tyrosinase [1], the inhibition at 100 µM stood at 81.1 ± 0.1% and the IC50 was 24.1 ± 2.3 µM. At tyrosinase [2], the Binding mode entry is recorded as “non-competitive inhibitors”. In the experiment “ABTS radical assay”, the “Scavenging activity of compounds … (%)” value is recorded as 94.1 ± 0.2% and the IC50 is 4.9 ± 0.3 µM.

With `COc1ccc(-c2coc3cc(O)ccc3c2=O)cc1` [Compound 4, formononetin], at tyrosinase [1], the inhibition at 100 µM amounted to 91.9 ± 2% and the IC50 is 19.9 ± 1.7 µM. Further, the Binding mode entry at tyrosinase [2] is recorded as “non-competitive inhibitors”. For the same compound, in “ABTS radical assay”, the “Scavenging activity of compounds … (%)” value was found to be 53.3 ± 2.4% and the IC50 came to 22.8 ± 1.1 µM.

Consider `CC(C)=CCc1c(O)cc(O)c2c1O[C@H](c1ccc(O)cc1)CC2=O` [Compound 5, 8-prenylnaringenin], for which, on tyrosinase [1], the inhibition at 100 µM is 27 ± 2.9%. Moreover, in “ABTS radical assay”, the “Scavenging activity of compounds … (%)” value is 91.5 ± 0.1% and the IC50 amounted to 7 ± 0.2 µM.

As to `C=C(C)[C@H](CC=C(C)C)Cc1c(O)cc(OC)c(C(=O)/C=C/c2ccc(O)cc2O)c1O` [kuraridin], the IC50 at tyrosinase [3] is 0.6 µM.

For `C=C(C)C(CCC(C)(C)O)Cc1c(O)cc(OC)c(C(=O)/C=C/c2ccc(O)cc2O)c1O` (stereo not shown) [kuraridinol], the IC50 on tyrosinase [3] is 0.8 µM.

Turning to `C=C(C)[C@H](CC=C(C)C)Cc1c(O)cc(OC)c2c1O[C@H](c1ccc(O)cc1O)CC2=O` [kurarinone], at tyrosinase [3], the IC50 was 6.2 µM.

For the compound `C=C(C)[C@H](CC=C(C)C)Cc1c(O)cc(O)c2c1O[C@H](c1ccc(O)cc1O)CC2=O` [sophoraflavanone G], on tyrosinase [3], the IC50 was 6.6 µM.
